The subject of assay [1] is PGES2 KO and wild type mice. As to the kind of experiment: Acetic acid-induced writhing (acute inflammation/pain model). The format is in vivo. Particulars: 10 mg/kg orally, one hour before 0.7% acetic acid i.p., vs vehicle. On the procedure: PGES2 KO mice were profiled in two experimental models of inflammation, collagen-induced arthritis (chronic inflammation model) and acetic acid-induced writhing (acute inflammation/pain model). All experiments were performed with age/sex-matched animals propagated on a DBA1/lacJ genetic background. This genetic background is optimal for collagen-induced arthritis (CIA). The phenotype in CIA was further profiled by characterizing the immune responses of PGES2 KO and wild type animals by assessing antibody production and delayed-type hypersensitivity reactions. In summary, results of the CIA and acetic acid-induced writhing models indicate a role for PGES2 in PGE2-mediated chronic inflammation, acute inflammation, and acute inflammatory pain detection as opposed to neuropathic pain detection. Mice were randomized and dosed orally with either vehicle (0.5% (w/w) methylcellulose, Sigma Chemical, #M0512) or 10 mg/kg piroxicam (Sigma Chemical, #P5654). One hour later, 16 μl/g body weight of 0.7% acetic acid was administered intraperitoneally. The mice were placed in a 5-compartment box and the number of stretches was counted for 20 minutes following acetic acid injection.
On the technique in general: An intraperitoneal irritant provokes the stretching counted in writhing tests.

Assay [2] has as its system PGES2 KO clone #22F ES cell-derived macrophages. In words: Rescue of wild type phenotype (cell density) in PGES2 KO ES cell-derived macrophages by PGE2 added to the media. It is filed as cell-based, murine. As for the experimental part:
DBA-252 WT (+/+) and PGES KO (−/−) ES cell clones #22D, #22F and #70V were used to develop ES cell in vitro differentiated (IVD) macrophages. WT and KO PGES2 ES cell clones were maintained without PEF feeders in SCML. Two days prior to embryoid body (EB) formation, all ES cell lines were switched to l-SCML medium that contained a base medium of Iscove's MDM (ILTI, #31980-030) supplemented with 15% ES cell qualified fetal calf serum, 0.2 mM L-glutamine, 0.1 mM MEM non-essential amino acids, 1000 u/ml recombinant murine leukemia inhibitory factor, 50 μg/ml Gentamycin and 0.1 mM 2-Mercaptoethanol (Sigma #M-7522).
Embryoid body stage: The WT and KO ES cell clones were dissociated and grown in suspension culture in bacteriology 100 mm dishes in MacEB medium that contained the base medium Iscove's MDM supplemented with 15% ES cell qualified fetal calf serum, 2 mM L-glutamine, 300 μg transferrin (ILTI, #13008-016), 50 μg/ml L-ascorbic acid (Sigma Chemical, #A-4403), 5% PFHM-II (ILTI, #12040-093), 4×10^−4 M monothioglycerol (MTG), and 50 μg/ml Gentamycin. ES cells were grown in suspension for 6 days to form the EB cell aggregates.
Precursor macrophage stage: The EBs were dissociated on day 6 and plated in tissue culture dishes in Mac I medium that contained the base medium Iscove's MDM supplemented with 10% FBS (ILTI, #10439-024), 5% PFHM-II (ILTI, #12040-093), 2 mM L-glutamine, 3 ng/ml M-CSF (Sigma #M-9170), 1 ng/ml IL-3 (PeproTech, Inc., Rocky Hill, N.J., #213-13) and 50 μg/ml Gentamycin. When this cell population became confluent, the macrophage precursors developed as non-adherent clusters and could be harvested every other day from day 14 through day 30.
ES cell-derived macrophages: Non-adherent clusters of macrophage precursors were harvested from the media by centrifugation. Cell pellets were resuspended in Mac II media that contained the base medium Iscove's MDM supplemented with 10% FBS, 5% PFHM-II, 2 mM L-glutamine, 3 ng/ml M-CSF, and 50 μg/ml Gentamycin. […]

Two molecules from patent US20030106085A1, “Disruption of the prostaglandin E synthase 2 gene” (Pfizer Inc., priority 2001, published 2003) can be followed below.

The structures appear in SMILES notation.

With `CN1C(C(=O)Nc2ccccn2)=C(O)c2ccccc2S1(=O)=O` [piroxicam], the “pain response (number of stretches counted for 20 minutes following acetic acid injection)” value is reported as “had no effect” in assay [1] (PGES2 KO mice) and “reduced the response” in assay [1] (wild type mice).
As to `CCCCC[C@H](O)/C=C/[C@H]1[C@H](O)CC(=O)[C@@H]1C/C=C\CCCC(=O)O` [PGE2, Prostaglandin E2], the macrophage density result in assay [2] (PGES2 KO clone 22F macrophages cultured in 10.0 μM PGE2, added at all stages of differentiation) is “approximately 75 % of wild type”. Also, the “macrophage density compared to wild type” value in assay [2] (PGES2 KO clone #22F macrophages cultured in 0.1 μM PGE2, added at all stages of differentiation) is “equivalent in density to wild type”; in assay [2] (PGES2 KO clone #22F macrophages cultured in 1.0 μM PGE2, added at all stages of differentiation), “equivalent in density to wild type”.
